In brackets after ≈: the same amount, converted by molar mass.
Key:
Rhyzopertha dominica [1] = assay: Drug level in Rhyzopertha dominica assessed as cyanide ion level per gram of insect at L99 treated as fumigation after 24 hr by spectrophotometric method; assay type: ADME, organism-based; conditions: in vivo, other
Musca domestica [2] = assay: Drug level in Musca domestica (house fly) at 1000 ug after 24 hr by spectrophotometric method; assay type: ADME, organism-based; conditions: in vivo
Musca domestica [3] = assay: Drug level in Musca domestica (house fly) assessed as cyanide ion level per gram of insect at L99 treated as fumigation after 24 hr by spectrophotometric method; assay type: ADME, organism-based; conditions: in vivo, inhaled_or_intranasal
Musca domestica [4] = assay: Drug level in Musca domestica (house fly) assessed as cyanide ion level per gram of insect at L99 treated topically after 24 hr by spectrophotometric method; assay type: ADME, organism-based; conditions: in vivo, topical_or_ocular
Musca domestica [5] = assay: Insecticidal activity against Musca domestica (house fly) after 24 hr; assay type: functional
Rhyzopertha dominica [6] = assay: Insecticidal activity against Rhyzopertha dominica after 24 hr; assay type: functional

Compound: C=CC(O)C#N (centres undefined)
- Drug uptake (Rhyzopertha dominica [1]): 35 ppm
- Drug uptake (Musca domestica [2]): 53%
- Drug uptake (Musca domestica [3]): 38 ppm
- Drug uptake (Musca domestica [4]): 52 ppm
- LC50 (Musca domestica [5]): 0.056 µg/mL (≈ 0.674 µM)
- LC50 (Rhyzopertha dominica [6]): 0.37 µg/mL (≈ 4.45 µM)

Compound: C=CC(C#N)OC(C)=O (centres undefined) [1-CYANOALLYL ACETATE]
- Drug uptake (Rhyzopertha dominica [1]): 33 ppm
- Drug uptake (Musca domestica [2]): 53%
- Drug uptake (Musca domestica [3]): 39 ppm
- Drug uptake (Musca domestica [4]): 54 ppm
- LC50 (Musca domestica [5]): 0.26 µg/mL
- LC50 (Rhyzopertha dominica [6]): 0.37 µg/mL

Compound: CCC(Cl)Cl [DICHLOROPROPANE]
- LC50 (Musca domestica [5]): 0.9 µg/mL (≈ 7.97 µM)
- LC50 (Rhyzopertha dominica [6]): 5.47 µg/mL (≈ 48.4 µM)

Compound: COP(=O)(OC)OC=C(Cl)Cl [DICHLORVOS]
- LC50 (Musca domestica [5]): 0.011 µg/mL (≈ 0.0498 µM)
- LC50 (Rhyzopertha dominica [6]): 0.29 µg/mL (≈ 1.31 µM)

Compound: CC(C)(O)C#N [DIMETHYLKETONE CYANOHYDRIN]
- Drug uptake (Rhyzopertha dominica [1]): 43 ppm
- Drug uptake (Musca domestica [2]): 53%
- Drug uptake (Musca domestica [3]): 48 ppm
- Drug uptake (Musca domestica [4]): 56 ppm
- LC50 (Musca domestica [5]): 0.07 µg/mL (≈ 0.823 µM)
- LC50 (Rhyzopertha dominica [6]): 0.4 µg/mL (≈ 4.7 µM)

Compound: CCC(C)(O)C#N (centres undefined) [METHYLETHYL KETONE CYANOHYDRIN]
- LC50 (Musca domestica [5]): 0.09 µg/mL (≈ 0.908 µM)
- LC50 (Rhyzopertha dominica [6]): 0.41 µg/mL (≈ 4.14 µM)

From ChEMBL document CHEMBL3046737, “Mode of Action of Cyanohydrins in Insects” (J Pestic Sci, 2005)
